The target in data set [1] is Chym (Bos taurus, UniProt P00766). In words: Chym KI (Table 1B(ii)). In kind it is biochemical. From the text:
(§1) We tested the ability of an additional group of Peptide Keto-Compounds to inhibit several proteases in order to evaluate their specificity for Calpain.

For data set [2], the target named is Calpain II. In words: Calpain II KI (Table 1B(ii)). In kind it is biochemical.
Excerpt: as §1

A short description of data set [3]: Stability in plasma. Type of data set: in vitro ADME. The conditions noted are these: unit assumed. The source says:
We determined the haft-life of several Peptide Keto-Compounds in both plasma and liver homogenates.

The test system of data set [4] is Calpain within platelets. In words: Platelet membrane permeation assay, spectrin proteolysis (Examples 4A, 4B). Type of data set: cell-based, rat. The conditions noted are these: for IC50: concentration at which 50% of the Calpain activation present in controls occurred; for inhibition of Calpain within platelets: 100 μM, A23187 1 μM. The method, then:
Platelets were isolated by a modification of the method of Ferrell and Martin, J Biol. Chem., 264:20723-20729 (1989), the disclosure of which is hereby incorporated by reference. Blood (15-20 ml) was drawn from male Sprague-Dawley rats into 100 mM EDTA-citrate containing 10 units heparin, and centrifuged 30 minutes at 1600 rpm at room temperature. The plasma was resuspended in 15 ml buffer 1 (136 mM NaCl, 2.7 mM KCl, 0.42 mM NaH2 PO4, 12 mM NaHCO3, 2 mM MgCl2, 2 mg/ml BSA (Sigma), 5.6 mM glucose, 22 mM Na3 Citrate pH 6.5) and platelets were isolated at 2200 rpm at room temperature of 25 minutes. Platelets were resuspended to 10^7 cells/ml in buffer 2 (136 mM NaCl, 2.7 mM KCl, 0.42 NaH2 PO4, 12 mM NaHCO3, 2 mM MgCl, 1 mg/ml BSA, 5.6 mM glucose, 20 mM HEPES pH 7.4) and allowed to "rest" for a minimum of 10 minutes at room temperature before use.
Platelets were incubated for 5 minutes in the presence of inhibitor. In order to provide sufficient intracellular calcium to activate Calpain, the calcium ionophore A23187 was added to a final concentration of 1 μM. After a further 5 minute incubation, the platelets were harvested by centrifugation (1 min 10,000×g) and resuspended in 10% sodium dodecyl sulfate, 10 mM Tris pH=8.0, 5% β-mercaptoethanol, 0.02% bromophenol blue, and heated to 95° C. for 5 min. Samples were subjected to SDS-PAGE on 6% mini gels and transferred to nitrocellulose (Schleicher and Schuell BAS3) for 2 hours at 100 mA/gel in an LKB Novablot. Filters were blocked for 10 minutes in 0.25% gelatin, 1% BSA, 0.25% Triton X100, 0.9% NaCl, 10 mM Tris-Cl pH 7.5, incubated overnight in the same solution containing antibody to rat spectrin, washed 3×10 minutes with 10 mM Tris-Cl pH 7.5, 0.5 % Triton X100, incubated 4 hours in wash buffer plus alkaline phosphatase conjugated goat anti-rabbit antibody (Biorad), and washed as above. Filters were developed using the Biorad AP conjugate substrate kit. Spectrin immunoreactivity on the filters was quantitated by densitometry.

In data set [5] the test system is Calpain in crude brain extracts. In words: Ca2+-stimulated spectrin proteolysis in crude brain extracts (Example 2). In kind it is biochemical. The following applies: 100 μM. Here is the method: The activity of Calpain in crude brain extracts was measured by examining the Ca^2+ -stimulated proteolysis of the endogenous substrate spectrin. Brain tissue was homogenized in 10 mM Tris pH=7.4, 0.32M sucrose, 1 mM EGTA, 1 mM dithiothreitol and the nuclei and debris removed by low speed centrifugation. […] Proteolysis of spectrin was evaluated by western blot as described by Seubert, et at. (Brain Research, 459:226-232, 1988), the disclosure of which is hereby incorporated by reference. Briefly, a known quantity of a spectrin-containing sample treated with Calpain is separated by SDS-PAGE and immunoblotted with anti-spectrin antibody. The amount of spectrin immunoreactivity found corresponding to the characteristic BDP's is indicative of the amount of […] activity present in the sample. An examplary method for quantitating BDP's is to assay Spectrin BDP's by homogenizing brain parts in 20 mM Tris pH=7.2, 0.32M sucrose, 50 μM Ac-Leu-Leu-nLeu-H on ice. Homogenates are then mixed 1:1 with 10% SDS, 5% β-mercaptoethanol, 10% glycerol, 10 mM Tris pH=8.0, 0.5% bromophenolblue, heated to 95° C., and subjected to electrophoresis in 41/2% polyacrylamide gels. The proteins in the gels are transferred to nitrocellulose and the spectrin and BDP's detected using a rabbit polyclonal anti-spectrin antibody and established immunodetection methods. The amount of spectrin and BDP's in each sample can be quantitated by densitrometric scanning of the developed nitrocellulose.

The target in data set [6] is PP Elastase (Sus scrofa, UniProt P00772). In words: PP Elastase KI (Table 1B(ii)). In kind it is biochemical.
PP Elastase, sequence (P00772 27-266): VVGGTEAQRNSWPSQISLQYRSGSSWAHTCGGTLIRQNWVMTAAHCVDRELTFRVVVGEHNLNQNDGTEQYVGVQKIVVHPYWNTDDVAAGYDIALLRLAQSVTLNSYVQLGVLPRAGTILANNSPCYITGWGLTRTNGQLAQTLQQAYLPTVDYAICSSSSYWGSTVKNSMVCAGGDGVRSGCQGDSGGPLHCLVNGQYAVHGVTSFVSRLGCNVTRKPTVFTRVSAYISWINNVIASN
Excerpt: as §1

For data set [7], the target named is Cathepsin B (Bos taurus, UniProt P07688). The data set can be described thus: Cathepsin B KI (Table 1B(ii)). Type of data set: biochemical. The following applies: read-out: KI CathB.
Excerpt: as §1

Where a SMILES comes first, the peptide text is derived from it. The star is where a group is joined. CH2Cl = ClC*

As for `CC(C)C[C@H](NC(=O)OCc1ccccc1)C(=O)N[C@@H](Cc1ccccc1)C(=O)C(=O)NCCc1ccccc1` [Z-Leu-Phe-CONH(CH2)2 Ph, Z-Leu-Phe-CONH-(CH2)2 Ph], the Ki in data set [1] was 2000 nM; in data set [2], 24 nM. The t1/2 plasma in data set [3] was > 1 h. Besides, in data set [4], 3000 nM corresponded to half-maximal inhibition (IC50).
As to `N=C(N)SCCOc1oc(=O)c2cc(NC(=O)Nc3ccccc3)ccc2c1Cl` [7-(phenylcarbamoylamino)-4-chloro-3-(2-isothiureidoethoxy)isocoumarin], the “inhibition of spectrin proteolysis in crude brain extracts” value (“inhibition of spectrin proteolysis” for short) in data set [5] is reported as “significant inhibition”. The “inhibition of Calpain within platelets” value in data set [4] is reported as “significant inhibition”.
As to `CCOC(=O)C(=O)C(CC)NC(=O)C(CC(C)C)NC(=O)C(C)(C)c1ccccc1` (stereo not drawn) [Ph-(CH3)2 -CO-Leu-Abu-COOEt], in data set [2], the Ki is 1200 nM.
As to Z-Leu-Abu, the “inhibition of Calpain within platelets” value in data set [4] is on record as “significant inhibition”.
`CCCCCCCCNC(=O)C(=O)[C@H](CC)NC(=O)[C@H](CC(C)C)NC(=O)OCc1ccccc1` [Z-Leu-Abu-CONH-(CH2)7 CH3, Z-Leu-Abu-CONH--(CH2)7 CH3]: the Ki in data set [2] is 19 nM.
As to `CC[C@H](NC(=O)[C@H](CC(C)C)NC(=O)OCc1ccccc1)C(=O)C(=O)NCCCN1CCOCC1` [Z-Leu-Abu-CONH-(CH2)3 -Mpl, Z-Leu-Abu-CONH--(CH2)3 -N(CH2 CH2)2 O], the Ki in data set [2] is 41 nM.
Consider `N=C(N)SCCCOc1oc(=O)c2cc(NC(=O)Cc3ccccc3)ccc2c1Cl` [7-(phenylacetylamino)-4-chloro-3-(3-isothiureidopropoxy)isocoumarin], for which the “inhibition of spectrin proteolysis” value in data set [5] is “significant inhibition”. Besides, in data set [4], the “inhibition of Calpain within platelets” value is “significant inhibition”.
In the case of `CCC(NC(=O)C(CC(C)C)NC(=O)OCc1ccccc1)C(=O)C(=O)NCC(C)C` (stereo not drawn) [Z-Leu-Abu-CONHiBu, Z-Leu-Abu-CONH-iBu], the Ki is > 300000 nM in data set [1], 140 nM in data set [2], 40000 nM in data set [6] and 4000 nM in data set [7]. Also, in data set [3], the t1/2 plasma was > 1 h. Besides, in data set [4], the IC50 came to 28000 nM.
As to `CC(=O)NC(C(=O)NC(Cc1ccccc1)C(=O)CCl)C(C)C` (stereo not drawn) [Ac-Val-Phe-CH2Cl] (Ac-Val-Phe-CH2Cl; configuration not given here), in data set [5], the “inhibition of spectrin proteolysis” value was “significant inhibition”.
For the compound `N=C(N)SCCCOc1oc(=O)c2cc(NC(=O)CCc3ccccc3)ccc2c1Cl` [7-(3-phenylpropionylamino)-4-chloro-3-(3-isothiureidopropoxy)isocoumarin], the “inhibition of spectrin proteolysis” value in data set [5] is listed as “significant inhibition”. The “inhibition of Calpain within platelets” value in data set [4] is recorded as “significant inhibition”.
In the case of `CCOC(=O)C(=O)C(CC)NC(=O)C(CC(C)C)NC(=O)C(CC(C)C)NC(=O)OCc1ccccc1` (stereo not drawn) [Z-Leu-Leu-Abu-COOEt], the Ki in data set [1] was > 100000 nM; in data set [2], 2600 nM; in data set [6] it was 25000 nM; in data set [7], 22000 nM. In data set [4], the “inhibition of Calpain within platelets” value is “significant inhibition”. This compound also gave an IC50 in data set [4] of 40000 nM.
For `CC(C)C[C@H](NC(=O)OCc1ccccc1)C(=O)N[C@@H](Cc1ccccc1)C(=O)C(=O)NCc1ccccc1` [Z-Leu-Phe-CONHBz, Z-Leu-Phe-CONH-Bzl], the Ki in data set [2] amounted to 46 nM.
Take `O=c1oc(OCc2ccccc2)c(Cl)c2ccccc12` [3-benzyloxy-4-chloroisocoumarin]: the “inhibition of spectrin proteolysis” value in data set [5] is reported as “significant inhibition”.
On to `CCOC(=O)C(=O)C(CC)NC(=O)C(CC(C)C)NS(=O)(=O)c1ccc2ccccc2c1` (stereo not drawn) [2-NapSO2 -Leu-Abu-COOEt], for which the “inhibition of Calpain within platelets” value in data set [4] is listed as “significant inhibition”.
The compound `CCC(NC(=O)C(CC(C)C)NC(=O)OCc1ccccc1)C(=O)C(=O)NCCO` (stereo not drawn) [Z-Leu-Abu-CONH-(CH2)2 OH] returned a Ki in data set [2] of 78 nM.
Take `CCOC(=O)C(=O)[C@H](CC)NC(=O)[C@H](CC(C)C)NC(=O)[C@H](CC(C)C)NC(=O)c1ccc2ccccc2c1` [2-NapCO-Leu-Leu-Abu-COOEt]: the Ki is > 300000 nM in data set [1], 90 nM in data set [2] and 28000 nM in data set [6]. This compound also had a t1/2 plasma in data set [3] of 0.417 h.
As to `O=c1oc(Cl)cc2ccccc12` [3-chloroisocoumarin, reference compound], the “inhibition of spectrin proteolysis” value in data set [5] is given as “significant inhibition”. Moreover, the “inhibition of Calpain within platelets” value in data set [4] is given as “significant inhibition”.
With `CCCOc1oc(=O)c2cc(NC(C)=O)ccc2c1Cl` [7-(acetylamino)-4-chloro-3-(propoxy)-isocoumarin], the “inhibition of spectrin proteolysis” value in data set [5] is “significant inhibition”.
Turning to `O=c1oc(Cl)c(Cl)c2ccccc12` [3,4-dichloroisocoumarin, reference compound], the “inhibition of spectrin proteolysis” value in data set [5] was “significant inhibition”.
With `N=C(N)SCCCOc1oc(=O)c2cc(NC(=O)Nc3ccccc3)ccc2c1Cl` [7-(phenylcarbamoylamino)-4-chloro-3-(3-isothiureidopropoxy)isocoumarin], the “inhibition of spectrin proteolysis” value in data set [5] is listed as “significant inhibition”. The “inhibition of Calpain within platelets” value in data set [4] is “significant inhibition”.
Compound `CC[C@H](NC(=O)[C@H](CC(C)C)NC(=O)OCc1ccccc1)C(=O)C(=O)NCCc1ccccc1` [Z-Leu-Abu-CONH-(CH2)2 -Ph, Z-Leu-Abu-CONH-(CH2)2 Ph] gave a Ki in data set [2] of 22 nM.
As for `CC(C)CNC(=O)C(=O)[C@H](Cc1ccccc1)NC(=O)[C@H](CC(C)C)NC(=O)OCc1ccccc1` [Z-Leu-Phe-CONHiBu, Z-Leu-Phe-CONH-iBu], the Ki in data set [1] stood at 24000 nM; in data set [2] it was 65 nM; in data set [7], 4000 nM. Moreover, the t1/2 plasma in data set [3] was > 1 h. The IC50 in data set [4] was found to be 22000 nM.

The values are drawn from patent publication US5444042A, “Method of treatment of neurodegeneration with calpain inhibitors” (Cortex Pharmaceuticals, priority 1994, dated 1995).
